The structures appear in SMILES notation. A value given as a limit tells only on which side of the number the result lay.

For the assay, the target named is T1, human Nav1.8 (Homo sapiens, UniProt Q9Y5Y9).
T1 construct: expressed in transfected cells; host or cells: HEK293 (HEK293-Nav1.8)
T1 sequence (Q9Y5Y9 whole entry): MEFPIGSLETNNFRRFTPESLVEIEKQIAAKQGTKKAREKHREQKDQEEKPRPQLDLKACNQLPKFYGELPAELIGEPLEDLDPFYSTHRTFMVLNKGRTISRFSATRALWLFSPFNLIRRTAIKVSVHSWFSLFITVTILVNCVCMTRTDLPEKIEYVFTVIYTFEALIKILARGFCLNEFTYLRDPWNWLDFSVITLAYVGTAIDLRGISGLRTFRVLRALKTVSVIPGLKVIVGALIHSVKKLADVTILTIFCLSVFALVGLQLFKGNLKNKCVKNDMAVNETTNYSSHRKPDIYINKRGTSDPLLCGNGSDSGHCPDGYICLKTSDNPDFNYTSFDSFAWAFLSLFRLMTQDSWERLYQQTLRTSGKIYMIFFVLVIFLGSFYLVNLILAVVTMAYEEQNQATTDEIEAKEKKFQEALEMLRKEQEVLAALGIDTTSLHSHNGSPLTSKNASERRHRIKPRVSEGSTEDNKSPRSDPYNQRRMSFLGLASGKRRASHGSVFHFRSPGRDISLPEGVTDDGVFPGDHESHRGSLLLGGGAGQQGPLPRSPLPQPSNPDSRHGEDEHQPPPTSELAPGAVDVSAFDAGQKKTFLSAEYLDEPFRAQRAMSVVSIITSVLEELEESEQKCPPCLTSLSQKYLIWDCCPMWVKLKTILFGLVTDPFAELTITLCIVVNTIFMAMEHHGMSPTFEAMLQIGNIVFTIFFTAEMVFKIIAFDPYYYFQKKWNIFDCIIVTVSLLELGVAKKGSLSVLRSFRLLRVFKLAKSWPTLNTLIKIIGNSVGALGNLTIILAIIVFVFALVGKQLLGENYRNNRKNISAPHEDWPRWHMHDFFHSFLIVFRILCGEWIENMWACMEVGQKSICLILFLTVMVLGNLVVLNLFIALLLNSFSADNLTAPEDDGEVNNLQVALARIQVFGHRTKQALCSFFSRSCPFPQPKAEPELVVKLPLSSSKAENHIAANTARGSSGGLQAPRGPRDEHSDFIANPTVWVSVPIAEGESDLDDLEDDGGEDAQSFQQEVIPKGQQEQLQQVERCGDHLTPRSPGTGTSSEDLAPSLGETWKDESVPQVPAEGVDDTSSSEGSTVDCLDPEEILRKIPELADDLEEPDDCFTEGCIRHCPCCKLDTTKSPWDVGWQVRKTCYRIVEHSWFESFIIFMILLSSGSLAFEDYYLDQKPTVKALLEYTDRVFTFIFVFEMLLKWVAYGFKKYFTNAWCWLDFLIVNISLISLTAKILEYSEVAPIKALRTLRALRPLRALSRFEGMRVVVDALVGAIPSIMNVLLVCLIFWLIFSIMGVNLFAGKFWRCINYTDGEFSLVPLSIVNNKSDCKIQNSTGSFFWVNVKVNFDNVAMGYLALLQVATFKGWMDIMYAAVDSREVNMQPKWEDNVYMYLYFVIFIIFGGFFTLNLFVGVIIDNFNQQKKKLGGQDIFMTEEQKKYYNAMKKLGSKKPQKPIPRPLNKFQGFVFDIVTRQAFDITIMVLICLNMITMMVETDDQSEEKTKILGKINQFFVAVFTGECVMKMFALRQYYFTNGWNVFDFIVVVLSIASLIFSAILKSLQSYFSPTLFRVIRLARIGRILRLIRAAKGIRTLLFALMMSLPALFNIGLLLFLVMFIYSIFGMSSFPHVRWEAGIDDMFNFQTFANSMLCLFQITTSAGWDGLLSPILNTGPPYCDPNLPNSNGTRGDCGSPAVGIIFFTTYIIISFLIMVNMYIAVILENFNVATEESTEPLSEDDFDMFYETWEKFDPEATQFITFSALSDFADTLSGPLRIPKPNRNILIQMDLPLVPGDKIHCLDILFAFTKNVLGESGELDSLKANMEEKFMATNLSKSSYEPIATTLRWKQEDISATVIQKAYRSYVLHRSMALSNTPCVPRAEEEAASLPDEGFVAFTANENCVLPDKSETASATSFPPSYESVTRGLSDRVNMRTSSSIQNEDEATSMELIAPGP
T1 sequence (Q07699 19-218 partner): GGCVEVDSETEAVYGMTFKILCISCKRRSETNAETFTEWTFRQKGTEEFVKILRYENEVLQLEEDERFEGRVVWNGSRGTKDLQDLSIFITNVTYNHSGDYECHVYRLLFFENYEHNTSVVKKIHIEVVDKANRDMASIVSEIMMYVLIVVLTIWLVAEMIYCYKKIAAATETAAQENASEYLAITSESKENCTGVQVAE
Nature of the assay: Nav1.8 sodium channels assay, QPatch 48 HTX electrophysiology in HEK293-Nav1.8 cells. It is filed as cell-based. Particulars: at least one set of experimental runs; read-out: average pIC50 value against Nav1.8 (converted). In a few lines:
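IC50 came from 6-8 point curves of P2 current amplitude, normalized to baseline and a positive reference, and corrected for run-down using vehicle-only wells. Automated patch clamp used HEK293-Nav1.8 (with Navβ1 and TREK1) at pH 7.4 outside and CsF-based solution inside. An 8 s inactivating step at −46 mV preceded the 0 mV test pulse, repeated at 0.07 Hz.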
Background: Patch clamp records ionic current or voltage across a cell membrane.
For the compound `Cc1cc(F)ccc1N1CN(c2ccc(=O)[nH]c2C)C(=O)c2cc(F)c(F)cc21` [Example 158, 6,7-difluoro-1-(4-fluoro-2-methylphenyl)-3-(2-methyl-6-oxo-1,6-dihydropyridin-3-yl)-2,3-dihydroquinazolin-4(1H)-one], the IC50 is no more than 0.1 µM.

Take `Cc1[nH]c(=O)ccc1N1CN(c2ccc(F)cc2C(C)C)c2cc(F)c(F)cc2C1=O` [Example 159, 6,7-difluoro-1-(4-fluoro-2-isopropylphenyl)-3-(2-methyl-6-oxo-1,6-dihydropyridin-3-yl)-2,3-dihydroquinazolin-4(1H)-one]: the IC50 is no more than 0.1 µM.

`Cc1[nH]c(=O)ccc1N1CN([C@H]2CCCC[C@H]2C)c2cc(C(F)(F)F)ccc2C1=O` [Example 160, 3-(2-methyl-6-oxo-1,6-dihydropyridin-3-yl)-1-((1S,2R)-2-methylcyclohexyl)-7-(trifluoromethyl)-2,3-dihydroquinazolin-4(1H)-one]: the IC50 is no more than 0.1 µM.

Turning to `Cc1[nH]c(=O)ccc1N1CN(c2ccc(F)cc2C(C)C)c2cc(C#N)ccc2C1=O` [Example 161, 1-(4-fluoro-2-isopropylphenyl)-3-(2-methyl-6-oxo-1,6-dihydropyridin-3-yl)-4-oxo-1,2,3,4-tetra-hydroquinazoline-7-carbonitrile], the IC50 is no more than 0.1 µM.

For `Cc1[nH]c(=O)ccc1N1CN([C@@H]2CCCC[C@@H]2C)c2cc(C(F)(F)F)ccc2C1=O` [Example 162, 3-(2-methyl-6-oxo-1,6-dihydropyridin-3-yl)-1-((1R,2S)-2-methylcyclohexyl)-7-(trifluoromethyl)-2,3-dihydroquinazolin-4(1H)-one], the IC50 was no more than 0.1 µM.

In the case of `CC(=O)Nc1[nH]c(=O)ccc1N1CN(c2ccc(F)cc2C)c2ccc(C(F)(F)F)cc2C1=O` [Example 163, N-(3-(1-(4-fluoro-2-methylphenyl)-4-oxo-6-(trifluoromethyl)-1,4-dihydroquinazolin-3(2H)-yl)-6-oxo-1,6-dihydropyridin-2-yl)acetamide], the IC50 was 0.794 to 7.94 µM.

On to `Cc1cc(F)ccc1N1CN(c2ccc(=O)[nH]c2Br)C(=O)c2cc(C(F)(F)F)ccc21` [Example 164, 3-(2-bromo-6-oxo-1,6-dihydropyridin-3-yl)-1-(4-fluoro-2-methylphenyl)-6-(trifluoromethyl)-2,3-dihydroquinazolin-4(1H)-one], for which the IC50 is 0.126 to 0.631 µM.

`COc1nc2c(cc1F)C(=O)N(c1ccc(=O)[nH]c1C)CN2c1ccc(F)cc1C` [Example 165, 6-fluoro-1-(4-fluoro-2-methylphenyl)-7-methoxy-3-(2-methyl-6-oxo-1,6-dihydropyridin-3-yl)-2,3-dihydropyrido[2,3-d]pyrimidin-4(1H)-one]: the IC50 is 0.126 to 0.631 µM.

In the case of `Cc1cc(F)ccc1N1CN(c2ccc(=O)[nH]c2C)C(=O)c2cc(C#N)c(C(F)(F)F)cc21` [Example 166, 1-(4-fluoro-2-methylphenyl)-3-(2-methyl-6-oxo-1,6-dihydropyridin-3-yl)-4-oxo-7-(trifluoromethyl)-1,2,3,4-tetra-hydroquinazoline-6-carbonitrile], the IC50 was no more than 0.1 µM.

For the compound `Cc1cc(F)ccc1N1CN(c2ccc(=O)[nH]c2C)C(=O)c2cc(Cl)c(OC(F)F)cc21` [Example 167, 6-chloro-7-(difluoromethoxy)-1-(4-fluoro-2-methylphenyl)-3-(2-methyl-6-oxo-1,6-dihydropyridin-3-yl)-2,3-dihydroquinazolin-4(1H)-one], the IC50 was no more than 0.1 µM.

For `Cc1cc(F)ccc1N1CN(c2ccc(=O)[nH]c2C)C(=O)c2cc(Cl)c(C(F)F)cc21` [Example 168, 6-chloro-7-(difluoromethyl)-1-(4-fluoro-2-methylphenyl)-3-(2-methyl-6-oxo-1,6-dihydropyridin-3-yl)-2,3-dihydroquinazolin-4(1H)-one], the IC50 is no more than 0.1 µM.

`Cc1cc(F)ccc1N1CN(c2c[nH]c(=O)nc2N)C(=O)c2cc(C(F)(F)F)ccc21` [Example 169, 3-(4-amino-2-oxo-1,2-dihydropyrimidin-5-yl)-1-(4-fluoro-2-methylphenyl)-6-(trifluoromethyl)-2,3-dihydroquinazolin-4(1H)-one]: the IC50 is 0.126 to 0.631 µM.

`Cc1cc(OC(F)(F)F)ccc1N1CN(c2ccc(=O)[nH]c2C)C(=O)c2cc(Cl)c(C#N)nc21` [Example 170, 6-chloro-1-(2-methyl-4-(trifluoromethoxy)phenyl)-3-(2-methyl-6-oxo-1,6-dihydropyridin-3-yl)-4-oxo-1,2,3,4-tetra-hydropyrido[2,3-d]pyrimidine-7-carbonitrile]: the IC50 is no more than 0.1 µM.

With `Cc1cc(F)ccc1N1CN(c2ccc(=O)[nH]c2C)C(=O)c2cc(Cl)c(C#N)nc21` [Example 171, 6-chloro-1-(4-fluoro-2-methylphenyl)-3-(2-methyl-6-oxo-1,6-dihydropyridin-3-yl)-4-oxo-1,2,3,4-tetra-hydropyrido[2,3-d]pyrimidine-7-carbonitrile], the IC50 is no more than 0.1 µM.

On to `Cc1cc(OC(F)(F)F)ccc1N1CN(c2ccc(=O)[nH]c2C)C(=O)c2cc(Cl)c(C#N)cc21` [Example 172, 6-chloro-1-(2-methyl-4-(trifluoromethoxy)phenyl)-3-(2-methyl-6-oxo-1,6-dihydropyridin-3-yl)-4-oxo-1,2,3,4-tetra-hydroquinazoline-7-carbonitrile], for which the IC50 is no more than 0.1 µM.

For `Cc1cc(F)ccc1N1CN(c2cnc(=O)[nH]c2C)C(=O)c2cc(Cl)c(C#N)cc21` [Example 173, 6-chloro-1-(4-fluoro-2-methylphenyl)-3-(6-methyl-2-oxo-1,2-dihydropyrimidin-5-yl)-4-oxo-1,2,3,4-tetra-hydroquinazoline-7-carbonitrile], the IC50 was no more than 0.1 µM.

Regarding `Cc1[nH]c(=O)ccc1N1CN(c2cccc(C(F)(F)F)c2C)c2ncc(C(F)(F)F)cc2C1=O` [Example 174, 1-(2-methyl-3-(trifluoromethyl)phenyl)-3-(2-methyl-6-oxo-1,6-dihydropyridin-3-yl)-6-(trifluoromethyl)-2,3-dihydropyrido[2,3-d]pyrimidin-4(1H)-one], the IC50 is 0.126 to 0.631 µM.

Regarding `Cc1[nH]c(=O)ccc1N1CN(c2cccc(Cl)c2C)c2ncc(C(F)(F)F)cc2C1=O` [Example 175, 1-(3-chloro-2-methylphenyl)-3-(2-methyl-6-oxo-1,6-dihydropyridin-3-yl)-6-(trifluoromethyl)-2,3-dihydropyrido[2,3-d]pyrimidin-4(1H)-one], the IC50 was 0.126 to 0.631 µM.

On to `CCc1cc(F)ccc1N1CN(c2ccc(=O)[nH]c2C)C(=O)c2cc(C(F)(F)F)cnc21` [Example 176, 1-(2-ethyl-4-fluorophenyl)-3-(2-methyl-6-oxo-1,6-dihydropyridin-3-yl)-6-(trifluoromethyl)-2,3-dihydropyrido[2,3-d]pyrimidin-4(1H)-one], for which the IC50 was no more than 0.1 µM.

For the compound `Cc1[nH]c(=O)ccc1N1CN(c2ccc(F)c(F)c2C)c2ncc(C(F)(F)F)cc2C1=O` [Example 177, 1-(3,4-difluoro-2-methylphenyl)-3-(2-methyl-6-oxo-1,6-dihydropyridin-3-yl)-6-(trifluoromethyl)-2,3-dihydropyrido[2,3-d]pyrimidin-4(1H)-one], the IC50 was no more than 0.1 µM.

For the compound `Cc1[nH]c(=O)ccc1N1CN(c2ccc(F)cc2C(C)C)c2ccc(C(F)(F)F)cc2C1=O` [Example 178, 1-(4-fluoro-2-isopropylphenyl)-3-(2-methyl-6-oxo-1,6-dihydropyridin-3-yl)-6-(trifluoromethyl)-2,3-dihydroquinazolin-4(1H)-one], the IC50 is no more than 0.1 µM.

Values taken from US20230103791A1 (GLAXOSMITHKLINE INTELLECTUAL PROPERTY DEVELOPMENT LIMITED, priority 2019, published 2023).
